In patent US20260364101A1, “OLEUROPEIN IN THE MANAGEMENT OF CANCER” (FUNDACIÓN MIGUEL SERVET, priority 2023, published 2026):
“Also recorded” adds a separate entry of the source.

Legend:
[1] = tested on: TAMs; experiment: ex vivo differentiated TAMs treated with compound, marker expression by flow cytometry (FIG. 1b); assay type: cell-based, mouse; conditions: oleuropein 50 μM
Experimental: Immunosuppressive myeloid cell subsets resembling tumor-infiltrating subsets (g-MDSCs, m-MDSCs and TAMs) were differentiated from mouse bone marrow following published procedures using conditioning medium produced by LLC tumor cells stably expressing GMCSF and MCSF cells. g- and m-MDSCs were purified using the myeloid-derived suppressor cell isolation kit (Miltenyi Biotec, Bergisch, Germany) according to manufacturer's recommendations. MDSCs and TAMs were seeded with 500 nM BML-275 or 50 μM oleuropein and incubated for seven days.
(§1) Surface and intracellular staining were carried out as described before with the following fluorochrome-conjugated antibody clones: AF488 anti-CD49d (R1-2), PE anti-CD4 (GK1.5), APCanti-CD8(53-6.7), brilliant Violet 510™ anti-I-A/I-E (M5/114.15.2,PE/Cyanine7anti-Ly-6G (1A8), and APC anti-CD80 (16-10A1) (Biolegend), FITC anti-IL-12 (C15.6) and BV421 anti-IL-2 (JES6-5H4) (BD Bioscience), APC-Vio® 770 anti-Ly-6C (REA796), PE REAfinity™ anti-F4/80 (REA126), and APC anti-CD68 (REA886) (Miltenyi), PerCP-Cyanine5.5 Anti-Human/Mouse CD11b (M1/70) (Tonbo), and AF488 anti-IFNγ (Clone XMG1.2) (BD Pharmigen). For human cells, it was used the following fluorochrome-conjugated antibodies: PerCP-Cy5.5-anti-CD11b (integrina alfa M) (M1/70), Violet Fluor 450 anti-CD14 antibody (61D3) (Tonbo), PE anti-CD115 (CSF-1R) (9-4D2-1E4) (Biolegend), PE-Cy™7 anti-CD11c (Clone B-ly6) (BD Bioscience), and APC anti-HLA-DR (REA517) (Miltenyi).
(§2) Data were collected using the FACSCanto Flow Cytometer (BD Biosciences) for ex vivo and in vitro experiments at Navarrabiomed Biomedical Research Center and Cyroflex LX flow cytometer (Beckman Counter). Data were analyzed with Flowjo.

[2] = tested on: CD4 T cells; experiment: mixed lymphocyte reaction (MLR) with MDSCs as stimulator cells (FIG. 1c,d); assay type: cell-based, mouse
Experimental: MLR were carried out following standard procedures. Briefly, 100,000 MDSCs or TAMs from C57BL/6 mice were co-cultured in 96-well plates with 100,000 lymphocytes from BALB/c mice. Co-cultured cells were treated with 50 µM oleuropein and compared with control vehicle. After 5 days, T-lymphocyte activation, differentiation and proliferation were assessed by flow cytometry. T-cell activation and proliferation markers (Ki-67) and pro-inflammatory cytokine production (IL-2 and IFNγ) were evaluated by flow cytometry in CD4 and CD8 T cells as described before.
as §1

[3] = tested on: myeloid cells from NSCLC patients; experiment: myeloid cells from NSCLC patients treated ex vivo, flow cytometry (FIG. 6a); assay type: cell-based, human
Experimental: as §1, §2
Twenty-one patients diagnosed with locally advanced or metastatic NSCLC treated with the immune checkpoint inhibitors (ICI) pembrolizumab (anti-PD-1) were recruited for the study. The characteristics of the cohort under study have been described before, and this observational study was approved by the Ethics Committee of Clinical Investigations at the University Hospital of Navarre (reference number: PI_2020/115). 11 of the patients were chemoresistant. Blood samples from non-small cell lung cancer (NSCLC) patients were collected prior to treatment and before administration of each immunotherapy cycle.
PBMCs were isolated as described and grown in vitro for 24 h in TEXCMACs medium (Miltenyi Biotec). Myeloid cells were obtained by adherence to plastic for 24 h. Then, 50,000 myeloid cells were seeded per well with 50 µM oleuropein in 96-well plates and incubated for seven days.

[4] = tested on: LLC cells; experiment: LLC lung cancer mouse tumor model resistant to immunotherapy; assay type: in vivo, C57BL/6 mice; conditions: for tumor growth: 300 μg oleuropein i.p. every other day for eight days
Experimental: C57BL/6 female mice were subcutaneously (s.c) injected with […] LLC cells or 0.5×10^6 MC38 cells per animal. When tumor growth reached an average diameter of 3.5 mm (day 0), mice received 100 μg of anti-PD-1 mAb (RPMI-14, BioXCell) intraperitoneally (i.p) at days 0, 5, and 13. Control mice received the same volume of saline. For oleuropein, mice received 300 μg oleuropein at days-1, 2, 4, 6, and 8. As negative control, the same volume of saline was injected.
The efficacy of all treatments was evaluated every two days by measuring two perpendicular tumor measurements. The size was calculated using the formula: Size=Length x Width. Mice were humanely sacrificed when tumor size reached ~150 mm^2, or when tumor ulceration or evident discomfort were observed. For rechallenge experiments in the MC38 model, mice that rejected tumors were injected s.c. with 5×10^5 MC38 cells in the left flank three months after the first tumor inoculation. Naïve mice were included as controls and development of tumors was evaluated for two months.
Tumor measurements of in vivo experiments are represented as tumor diameter (mm^2) and plotted either as individual data points for one individual mouse or as mean±SD as indicated in the figure legends. Statistical analysis was performed using one way ANOVA test followed by a Sidak's multiple comparison test at 0.05 level of significance. For in vivo experiments, to compare multiple experimental groups, one-way ANOVA test and Tukey's multiple comparison test were used. Two-tailed Student's t test was applied to compare two experimental groups. Survival of tumor-bearing mice is represented by Kaplan-Meier plots and analyzed by log-rank test. The p values <0.05 were considered statistically significant.
To test antitumor capacities in vivo, LLC cells were implanted subcutaneously into groups of mice and tumors were allowed to grow to an average diameter of approximately […]. This model was chosen because LCC cells are poorly immunogenic and notoriously refractory to PD-L1/PD-1 blockade. Oleuropein was then administered intraperitoneally every other day for eight days.
To address whether oleuropein could be combined with anti-PD1 immunotherapy to treat LCC-derived tumors, anti-PD1 mAb was systemically administered in combination with intraperitoneal injection of oleuropein. As controls, groups of mice treated with each of the agents singly and saline-treated groups were included.

[5] = tested on: TAMCs; experiment: apoptotic effect on myeloid cell populations; assay type: cell-based
[6] = oleuropein 50 μM, seven days, N=21 patients
[7] = LLC s.c., oleuropein 300 μg i.p. alone or with anti-PD-1 mAb 100 μg i.p.

## C/C=C1/[C@H](O[C@@H]2O[C@H](CO)[C@@H](O)[C@H](O)[C@H]2O)OC=C(C(=O)OC)[C@H]1CC(=O)OCCc1ccc(O)c(O)c1 [oleuropein]
[1]; BML-275 500 nM, TAMs
  cells co-expressing MHC-II and CD80: significant elevation
[1]
  polarization of TAMs: polarized MDSCs and TAMs into activated myeloid cells; also recorded: polarized TAMs to activated macrophages
[1]; TAMs
  IL-12 production: upregulated IL-12 production only in the presence of oleuropein
[2]; oleuropein-reprogrammed MDSCs and TAMs
  T cell activation capacities: enhanced T cell activation capacities
[2]; particularly CD4 T cell activation
  immune cell activation: induces an immune cell activation
[2]; treated MDSCs as stimulators, 5 days
  CD4 T cell stimulation assessed by IFNγ and IL-2 production: potently stimulated
[3]; including anti-PD-1-based therapy resistance
  activation of myeloid cells of subjects suffering lung cancer: induced the activation of myeloid cells
[3]; [6]
  CD11b+ cells: increase
  expression of CD11c+HLA-DR: elevation
  expression of CD14+HLA-DR: elevation
  expression of CD115+HLA-DR: elevation
[4]; LLC s.c.
  tumor growth: significantly delayed tumor growth
[4]; LLC s.c., listed as Oleuropein
  tumor growth: delayed tumor growth
[4]; [7]
  increased survival, time: up to 20 days
  survival: significant increase in long-term survival
[4]; LLC s.c., oleuropein 300 μg i.p. alone or with anti-PD-1 mAb 100 μg i.p., listed as Oleuropein
  survival: significantly increased survival
[4]; LLC s.c., oleuropein i.p.
  mice responding to the treatment: most of the mice responding to the treatment
[4]; tumor model intrinsically resistant to PD-1 blockade
  improvement of aPD-1 therapies: improved aPD-1 therapies in a tumor model intrinsically resistant to PD-1 blockade; also recorded: improved aPD-1 and anti-LAG-3 therapies
[5]
  apoptotic effect: does not provide any apoptotic effect
